Measurements: the supplement of paper PMC10307832

Legend:
Assay in all cases: relative viability (nuclei count vs DMSO), 5 days (fraction); higher = more cells survive
SK-LU-1 = system: SK-LU-1
Method in brief: (§1)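 Lung cancer cell lines were pin-tool dosed in 1536-well plates on the day after seeding, with either a lone drug or a fixed anchor-drug dose plus five library-drug doses (not always all listed) in √10 steps. Nuclei were counted on 4× images after 5 days. Relative viability is the ratio of treated-well to vehicle-well nuclei counts, with each value a median of duplicate plates.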

UMC-11 = system: UMC-11
Method in brief: as §1

NCI-H322M = system: NCI-H322M
Method in brief: as §1

NCI-H647 = system: NCI-H647
Method in brief: as §1

NCI-H1755 = system: NCI-H1755
Method in brief: as §1

NCI-H522 = system: NCI-H522
Method in brief: as §1

NCI-H596 = system: NCI-H596
Method in brief: as §1

HOP-62 = system: HOP-62
Method in brief: as §1

LCLC-103H = system: LCLC-103H
Method in brief: as §1

COR-L 105 = system: COR-L 105
Method in brief: as §1

HCC-44 = system: HCC-44
Method in brief: as §1

EKVX = system: EKVX
Method in brief: as §1

NCI-H1793 = system: NCI-H1793
Method in brief: as §1

NCI-H520 = system: NCI-H520
Method in brief: as §1

201T = system: 201T
Method in brief: as §1

NCI-H2009 = system: NCI-H2009
Method in brief: as §1

NCI-H1437 = system: NCI-H1437
Method in brief: as §1

HCC-827 = system: HCC-827
Method in brief: as §1

NCI-H441 = system: NCI-H441
Method in brief: as §1

H3255 = system: H3255
Method in brief: as §1

EPLC-272H = system: EPLC-272H
Method in brief: as §1

HCC-15 = system: HCC-15
Method in brief: as §1

NCI-H1355 = system: NCI-H1355
Method in brief: as §1

PC-3 [JPC-3] = system: PC-3 [JPC-3]
Method in brief: as §1

Nc1cccc2c1CN(C1CCC(=O)NC1=O)C2=O (centres undefined) [Lenalidomide] + Nc1ncn([C@H]2C[C@H](O)[C@@H](CO)O2)c(=O)n1 [Decitabine] (partner 2 µM)
relative viability (SK-LU-1; first compound 0.253 µM): 0.614
relative viability (SK-LU-1; first compound 0.8 µM): 0.58
relative viability (SK-LU-1; first compound 2.53 µM): 0.72
relative viability (SK-LU-1; first compound 8 µM): 0.603
relative viability (UMC-11; first compound 0.253 µM): 0.46
relative viability (UMC-11; first compound 0.8 µM): 0.688
relative viability (UMC-11; first compound 2.53 µM): 0.725
relative viability (UMC-11; first compound 8 µM): 0.621
relative viability (NCI-H322M; first compound 0.253 µM): 0.702
relative viability (NCI-H322M; first compound 0.8 µM): 0.78
relative viability (NCI-H322M; first compound 2.53 µM): 0.725
relative viability (NCI-H322M; first compound 8 µM): 0.688
relative viability (NCI-H647; first compound 0.253 µM): 0.426
relative viability (NCI-H647; first compound 0.8 µM): 0.318
relative viability (NCI-H647; first compound 2.53 µM): 0.428
relative viability (NCI-H647; first compound 8 µM): 0.446
relative viability (NCI-H1755; first compound 0.253 µM): 0.763
relative viability (NCI-H1755; first compound 0.8 µM): 0.687
relative viability (NCI-H1755; first compound 2.53 µM): 0.712
relative viability (NCI-H1755; first compound 8 µM): 0.688
relative viability (NCI-H522; first compound 0.253 µM): 0.759
relative viability (NCI-H522; first compound 0.8 µM): 0.76
relative viability (NCI-H522; first compound 2.53 µM): 0.694
relative viability (NCI-H522; first compound 8 µM): 0.626
relative viability (NCI-H596; first compound 0.253 µM): 0.85
relative viability (NCI-H596; first compound 0.8 µM): 1.46
relative viability (NCI-H596; first compound 2.53 µM): 1.06
relative viability (NCI-H596; first compound 8 µM): 0.95
relative viability (HOP-62; first compound 0.253 µM): 0.264
relative viability (HOP-62; first compound 0.8 µM): 0.239
relative viability (HOP-62; first compound 2.53 µM): 0.224
relative viability (HOP-62; first compound 8 µM): 0.212
relative viability (LCLC-103H; first compound 0.253 µM): 0.72
relative viability (LCLC-103H; first compound 0.8 µM): 0.664
relative viability (LCLC-103H; first compound 2.53 µM): 0.73
relative viability (LCLC-103H; first compound 8 µM): 0.651
relative viability (COR-L 105; first compound 0.253 µM): 0.684
relative viability (COR-L 105; first compound 0.8 µM): 0.704
relative viability (COR-L 105; first compound 2.53 µM): 0.763
relative viability (COR-L 105; first compound 8 µM): 0.711
relative viability (HCC-44; first compound 0.253 µM): 0.946
relative viability (HCC-44; first compound 0.8 µM): 0.781
relative viability (HCC-44; first compound 2.53 µM): 1.01
relative viability (HCC-44; first compound 8 µM): 0.853
relative viability (EKVX; first compound 0.253 µM): 0.326
relative viability (EKVX; first compound 0.8 µM): 0.4
relative viability (EKVX; first compound 2.53 µM): 0.336
relative viability (EKVX; first compound 8 µM): 0.331
relative viability (NCI-H1793; first compound 0.253 µM): 0.464
relative viability (NCI-H1793; first compound 2.53 µM): 0.535
relative viability (NCI-H1793; first compound 8 µM): 0.44
relative viability (NCI-H520; first compound 0.253 µM): 0.539
relative viability (NCI-H520; first compound 0.8 µM): 0.548
relative viability (NCI-H520; first compound 2.53 µM): 0.507
relative viability (NCI-H520; first compound 8 µM): 0.438
relative viability (201T; first compound 0.253 µM): 0.874
relative viability (201T; first compound 0.8 µM): 0.927
relative viability (201T; first compound 2.53 µM): 0.88
relative viability (201T; first compound 8 µM): 0.816
relative viability (NCI-H2009; first compound 0.253 µM): 0.415
relative viability (NCI-H2009; first compound 0.8 µM): 0.387
relative viability (NCI-H2009; first compound 2.53 µM): 0.406
relative viability (NCI-H2009; first compound 8 µM): 0.397
relative viability (NCI-H1437; first compound 0.253 µM): 0.556
relative viability (NCI-H1437; first compound 0.8 µM): 0.5
relative viability (NCI-H1437; first compound 2.53 µM): 0.59
relative viability (NCI-H1437; first compound 8 µM): 0.648
relative viability (HCC-827; first compound 0.253 µM): 0.336
relative viability (HCC-827; first compound 0.8 µM): 0.284
relative viability (HCC-827; first compound 2.53 µM): 0.348
relative viability (HCC-827; first compound 8 µM): 0.35
relative viability (NCI-H441; first compound 0.253 µM): 0.233
relative viability (NCI-H441; first compound 0.8 µM): 0.229
relative viability (NCI-H441; first compound 2.53 µM): 0.264
relative viability (NCI-H441; first compound 8 µM): 0.262
relative viability (H3255; first compound 0.253 µM): 0.592
relative viability (H3255; first compound 0.8 µM): 0.556
relative viability (H3255; first compound 2.53 µM): 0.563
relative viability (H3255; first compound 8 µM): 0.421
relative viability (EPLC-272H; first compound 0.253 µM): 0.382
relative viability (EPLC-272H; first compound 0.8 µM): 0.381
relative viability (EPLC-272H; first compound 2.53 µM): 0.413
relative viability (EPLC-272H; first compound 8 µM): 0.32
relative viability (HCC-15; first compound 0.253 µM): 0.766
relative viability (HCC-15; first compound 2.53 µM): 0.763
relative viability (HCC-15; first compound 8 µM): 0.594
relative viability (NCI-H1355; first compound 0.253 µM): 0.36
relative viability (NCI-H1355; first compound 0.8 µM): 0.367
relative viability (NCI-H1355; first compound 2.53 µM): 0.376
relative viability (NCI-H1355; first compound 8 µM): 0.341
relative viability (PC-3 [JPC-3]; first compound 0.253 µM): 0.848
relative viability (PC-3 [JPC-3]; first compound 0.8 µM): 0.807
relative viability (PC-3 [JPC-3]; first compound 2.53 µM): 0.874
relative viability (PC-3 [JPC-3]; first compound 8 µM): 0.878
